For series [1], the system named is caspase-3 activation in SHSY-5Y cells. As to the kind of experiment: Caspase-3 activation induced by ethacrynic acid plus thapsigargin. The conditions noted are these: positive control, 24 hr ethacrynic acid/thapsigargin stress. The class given is cell-based. As to the method: The potential ability of test compound Nos. 1-10 individually to moderate caspase activation was therefore examined using SHSY-5Y cells, in accordance with the Dykens assay.
In the Dykens assay method, caspase activation is induced by 24 hr exposure to a combined stress of ethacrynic acid (25 to derivatize glutathione and induce oxidative stress, and thapsigargin (1 μM), to induce a chronic increase in cytosolic Ca^2+. Caspase activity is determined using a fluorogenic substrate, with rates normalized to cell number; and is expressed as % response of controls on every plate exposed to ethacrynate and thapsigargen in the absence of compound. Compound Nos. 1-10 at 10 μM were separately introduced for reaction at the same time as the ethycrynic acid/thapsigargin addition, and were present throughout the 24 hr incubation period.

In series [2] the test system is human tumor cell lines FaDu and Jurkat, Ki-v-Ras-transformed Balb/c-3T3 murine mesenchymal cell line. Particulars: cited from earlier work.
For series [3] the following is noted: humans; cited from earlier work.
For series [4], the system named is mitochondrial membrane potential (ΔΨm) in SHSY-5Y neuroblastoma cells. Particulars: FRET-based ΔΨm assay, reference agent, cited from earlier work.
Series [5] shares this test system. The experiment in a line: FRET-based ΔΨm assay (NAO/TMRE), compound alone and Ca2+-induced ΔΨm collapse. The class given is cell-based. The conditions noted are these: concentration not given; for B-C response, typical values: reference agents alone; for % Ca^2+ response score (comparison agents): reference agents.
The mark [6] stands for this setting: read-out: EC50, prevent Ca^2+ uptake via uniporter inhibition.

pEC50: −log10 of the molar value. Like-named read-outs stand apart in the source and are kept apart here.

Take “IGF-1: positive control in caspase-3 activation assay”: the “Reduction of caspase activity” value in series [1] amounted to 64%.

In the case of `O=C(O)CCCCC1CCSS1` (stereo not drawn) [alpha-lipoic acid, 1,2-dithiolane-3-pentanoic acid], the “Apoptosis in tumor cell lines” value in series [2] is reported as “induces apoptosis”. Besides, in series [3], the plasma half-life result is “less than 1 hour” and the “time to excretion, mainly in the urine” value is at most 24 h.

For the molecule RU-360, in series [4] (setting [6]), the pEC50 (usually the EC50 on a negative log10 scale, so that one unit is a factor of ten) is 7.92. For the molecule `CC[C@H]1/C=C/C=C/C[C@@H](C)[C@H](O)[C@@](C)(O)C(=O)[C@@H](C)[C@H](O)[C@@H](C)C(=O)[C@@H](C)[C@H](O)[C@@H](C)/C=C/C(=O)O[C@@H]2[C@H](C)[C@H](CC1)O[C@]1(CC[C@H](C)[C@H](C[C@@H](C)O)O1)[C@H]2C` [oligomycin], the pEC50 in series [4] (read-out: EC50, hyperpolarize ΔΨm) is 7.59. As for `Nc1ncnc2c1ncn2[C@@H]1O[C@H](COP(=O)(O)OP(=O)(O)O)[C@@H](O)[C@H]1O` [ADP], in series [4] (read-out: EC50, dissipate ΔΨm under physiological circumstances), the negative logarithm of the EC50 (pEC50) is 3.91. Take `N#CC(C#N)=NNc1cccc(Cl)c1` [CCCP]: in series [4] (read-out: EC50, collapse ΔΨm), the pEC50 is 5.70. Besides, the “B-C response, typical values” in series [5] is around −1800 RFU. `CO[C@H](C/C=C\C=C\CC/C=C/C[C@H](C)/C=C/C(=C\C(=O)O)CC(=O)O)/C(C)=C\C=C(/C)C(=O)O` [bongkrekate]: the negative logarithm of the EC50 (pEC50) in series [4] (read-out: EC50, inhibit Ca^2+-mediated ΔΨm loss) is 7.11. Also, in series [5], the “B-C response, typical values” was around 600 RFU and the “% Ca^2+ response score (comparison agents)” value turned out to be 44%.

With `N.N.N.N.N.N.N.N.N.N.N.N.N.N.[Cl-].[Cl-].[Cl-].[Cl-].[Cl-].[Cl-].[O-2].[O-2].[Ru+3].[Ru+3].[Ru+4]` [ruthenium red], the pEC50 in series [4] (setting [6]) is 6.57. In addition, the “% Ca^2+ response score (comparison agents)” value in series [5] stood at 9%.
